# Laboratory results from US20230202982A1, “5-CHLORO-4-HYDROXY-1-METHYL-2-OXO-N-PHENYL-QUINOLINE-3-CARBOXAMIDE POTASSIUM SALT FOR TREATING INFLAMMATORY BOWEL DISEASES” (Aqilion AB, priority 2020, published 2023).
# Columns and labels:
# [1] = molecular target: T1, aryl hydrocarbon receptor (AhR) (Mus musculus, UniProt P30561); assay: Activation of AhR in mice after oral administration, qPCR of CYP1A1; type: in vivo; conditions: for Colon CYP1A1 (fold change over untreated), Mean / Liver CYP1A1 (fold change over untreated), Mean: day 14, C57Bl/6 mice
# T1 construct: evaluated in a wild-type (WT) mice; from tissue; host or cells: colon and liver of wild-type mice, in vivo after oral dosing
# T1 sequence (P30561 10-848): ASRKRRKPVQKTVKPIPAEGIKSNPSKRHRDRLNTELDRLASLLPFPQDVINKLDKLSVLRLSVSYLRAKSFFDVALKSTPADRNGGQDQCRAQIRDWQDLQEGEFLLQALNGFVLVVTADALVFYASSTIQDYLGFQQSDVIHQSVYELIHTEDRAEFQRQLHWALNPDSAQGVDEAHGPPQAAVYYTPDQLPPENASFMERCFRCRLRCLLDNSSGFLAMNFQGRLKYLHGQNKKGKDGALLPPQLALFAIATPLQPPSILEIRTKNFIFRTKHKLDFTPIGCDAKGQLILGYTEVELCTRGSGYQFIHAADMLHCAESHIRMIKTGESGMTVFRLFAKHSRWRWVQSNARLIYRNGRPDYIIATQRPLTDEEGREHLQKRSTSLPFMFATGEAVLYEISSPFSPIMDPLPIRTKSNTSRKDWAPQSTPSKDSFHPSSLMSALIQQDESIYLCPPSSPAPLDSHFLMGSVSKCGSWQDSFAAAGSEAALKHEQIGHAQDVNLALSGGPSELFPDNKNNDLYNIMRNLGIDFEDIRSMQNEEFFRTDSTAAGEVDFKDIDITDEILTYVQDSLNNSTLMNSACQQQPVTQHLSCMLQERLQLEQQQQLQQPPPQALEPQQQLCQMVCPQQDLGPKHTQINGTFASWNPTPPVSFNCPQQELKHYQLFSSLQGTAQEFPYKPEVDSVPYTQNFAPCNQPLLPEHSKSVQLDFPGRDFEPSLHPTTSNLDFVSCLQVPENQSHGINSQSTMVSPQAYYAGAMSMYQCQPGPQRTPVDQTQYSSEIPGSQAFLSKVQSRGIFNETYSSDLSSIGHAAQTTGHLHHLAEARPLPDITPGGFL
# Experimental: The potential of the 5-chloro-4-hydroxy-1-methyl-2-oxo-N-phenyl-quinoline-3-carboxamide potassium salt (Example compound 1) to activate the aryl hydrocarbon receptor (AhR) in the colon following oral administration was evaluated in a wild-type (WT) mice.
# On study day 0, animals were weighed and evenly distributed into treatment groups based on body weight.
# On study day 14, animals were asphyxiated via CO2 inhalation followed by cervical dislocation. The entire colon was removed, collected and prepared for qPCR analysis of CYP1A1 (Normalized to GAPDH & ACTB).
# The Example compound 1 was formulated as a 0.1 mg/ml, 0.01 mg/ml or 0.001 mg/ml suspension with sodium carboxymethyl cellulose (1%, w/v).
# [2] = Stability in aqueous solutions (impurity profile by HPLC-UV); type: physicochemical; conditions: PBS (pH 7.4) and SCF, room temperature, 48 and 72 hours
# Experimental: The solubility and stability at room temperature of Example compound 1 and the free acid compound 5-chloro-4-hydroxy-1-methyl-2-oxo-N-phenyl-quinoline-3-carboxamide (described in Example 1a) above) was determined in PBS (pH 7.4) and in simulated colonic fluid (SCF) at ambient temperature. The SCF was the product FaSSCof obtained from Biorelevant.com prepared according to the manufacturer’s instructions. FaSSCof contains 0.15 mM sodium cholate, 0.3 mM Phospholipids, 0.1 mM Oleate, 120 mM sodium hydroxide, 45 mM TRIS and 76 mM maleate.
# Saturated solutions were prepared in these solvents and the concentrations/impurity profile was determined by HPLC-UV using a calibration curve in the range of 1 to 150 µg/ml at 300 nm or 320 nm. Visual evaluation was also performed after every step over the testing period.
# The samples were also analysed for the presence of impurities. After a period of 48 and 72 hours, all impurities were below the lower limit of quantitation.
structure (smiles),measurement,setting,value
"Cn1c(=O)c(C(=O)Nc2ccccc2)c([O-])c2c(Cl)cccc21.[K+] [Example compound 1, 5-chloro-4-hydroxy-1-methyl-2-oxo-N-phenyl-quinoline-3-carboxamide potassium salt]","Colon CYP1A1 (fold change over untreated), Mean","[1]; 0.01 mg/kg PO QD D0-13, colon",1.03 fold change over untreated
same,"Liver CYP1A1 (fold change over untreated), Mean","[1]; 0.01 mg/kg PO QD D0-13, liver",1.08 fold change over untreated
same,"Colon CYP1A1 (fold change over untreated), Mean","[1]; 0.1 mg/kg PO QD D0-13, colon",7.42 fold change over untreated
same,"Liver CYP1A1 (fold change over untreated), Mean","[1]; 0.1 mg/kg PO QD D0-13, liver",2.81 fold change over untreated
same,"Colon CYP1A1 (fold change over untreated), Mean","[1]; 1.0 mg/kg PO QD D0-13, colon",8.34 fold change over untreated
same,"Liver CYP1A1 (fold change over untreated), Mean","[1]; 1.0 mg/kg PO QD D0-13, liver",3.44 fold change over untreated
same,CYP1A1 mRNA expression compared to untreated animals,"[1]; 1.0 and 0.1 mg/kg oral, WT mice",significant increase
same,Stability in aqueous solution (impurities),[2],stable in aqueous solution
